Molecules are shown by their SMILES.

For this experiment, the target named is PqsR (Pseudomonas aeruginosa, UniProt Q9I4X0). In words: E. coli based β-galactosidase reporter gene assay (PqsR inverse agonistic activity). Format: cell-based. Set-up: expressed in transfected cells; host or cells: Escherichia coli DH5α. How it is done: Inhibition of pqsR-dependent gene expression of test compounds was determined in an E. coli based β-galactosidase reporter gene assay.[19] Escherichia coli DH5α was transfected with pEAL08-2 plasmid encoding pqsR under control of promoter tac and β-galactosidase reporter gene lacZ under control of promoter pqsA. Antagonistic effects of compounds were evaluated in the presence of/in competition to 50 nM PQS. A positive control was used to ensure the reliability of individual assays. First, PQS was diluted in methanol and added to the wells of a glass coated 96-deep-well plate, and the solvent was evaporated. Then, compounds were added in 5 μL DMSO to final concentrations of 0.001-10 μM. Overnight cultures of E. coli DH5a×pEAL08-2 were diluted 1:100 in LB medium with ampicillin (50 μg/ml) and incubated at 37° C. with shaking until it reached an OD600 of 0.2. Finally, 995 μL of culture was added to each well and the p-galactosidase activity was determined by ortho-nitrophenyl-p-galactoside conversion in permeabilized cells after a 2.5 h incubation period (37° C., 180 rpm). OD600, OD420, and OD550 were measured using POLARstar Omega (BMG Labtech, Ortenberg, Germany), and the activity was expressed as ratio of the slope of β-galactosidase activity between basal control (no PQS) and solvent control. IC50 values of antagonists were determined by variation of the concentration of the test compounds.
PqsR, sequence (Q9I4X0 whole entry): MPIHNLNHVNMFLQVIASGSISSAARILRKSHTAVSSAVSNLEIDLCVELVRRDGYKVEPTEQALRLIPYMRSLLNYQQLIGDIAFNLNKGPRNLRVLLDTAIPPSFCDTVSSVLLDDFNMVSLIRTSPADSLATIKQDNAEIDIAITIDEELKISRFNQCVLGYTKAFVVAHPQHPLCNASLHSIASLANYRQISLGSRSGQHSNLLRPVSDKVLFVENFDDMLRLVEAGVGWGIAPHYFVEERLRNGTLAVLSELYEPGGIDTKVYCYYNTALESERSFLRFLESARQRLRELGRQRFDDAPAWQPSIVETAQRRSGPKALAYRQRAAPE
The term IC50 denotes the point on the concentration scale where inhibition reaches its midpoint. Low readings indicate greater potency, high ones weaker potency. The compound `FC(F)(F)c1cc(NCc2cn(-c3cccc(CN4CCOCC4)c3)nn2)ccn1` [Compound 002, N-((1-(3-(Morpholinomethyl)phenyl)-1H-1,2,3-triazol-4-yl)methyl)-2-(trifluoromethyl)pyridin-4-amine] registered an IC50 of 251 to 1000 nM. `FC(F)(F)c1cc(NCc2cn(-c3cccc(Cl)c3)nn2)ccn1` [Compound 003, N-((1-(3-Chlorophenyl)-1H-1,2,3-triazol-4-yl)methyl)-2-(trifluoromethyl)pyridin-4-amine] gave an IC50 of 51 to 250 nM. For `FC(F)(F)c1cc(NCc2cn(-c3ccc(Cl)cc3)nn2)ccn1` [Compound 008, N-((1-(4-chlorophenyl)-1H-1,2,3-triazol-4-yl)methyl)-2-(trifluoromethyl)pyridin-4-amine], the IC50 lay in the range of 51 to 250 nM. For `Fc1cccc(-n2cc(CNc3ccnc(C(F)(F)F)c3)nn2)c1` [Compound 009, N-((1-(3-Fluorophenyl)-1H-1,2,3-triazol-4-yl)methyl)-2-(trifluoromethyl)pyridin-4-amine] the value was 251 to 1000 nM. For `Fc1ccc(-n2cc(CNc3ccnc(C(F)(F)F)c3)nn2)cc1` [Compound 010, N-((1-(4-Fluorophenyl)-1H-1,2,3-triazol-4-yl)methyl)-2-(trifluoromethyl)pyridin-4-amine] the value was 51 to 250 nM; for `FC(F)(F)Oc1cccc(-n2cc(CNc3ccnc(C(F)(F)F)c3)nn2)c1` [Compound 011, N-((1-(3-(Trifluoromethoxy)phenyl)-1H-1,2,3-triazol-4-yl)methyl)-2-(trifluoromethyl)pyridin-4-amine], 51 to 250 nM; for `N#Cc1ccc(-n2cc(CNc3ccnc(C(F)(F)F)c3)nn2)cc1` [Compound 013, 4-(4-(((2-(trifluoromethyl)pyridin-4-yl)amino)methyl)-1H-1,2,3-triazol-1-yl)benzonitrile], 251 to 1000 nM. For `FC(F)(F)c1ccc(-n2cc(CNc3ccnc(C(F)(F)F)c3)nn2)cc1` [Compound 014, 2-(Trifluoromethyl)-N-((1-(4-(trifluoromethyl)phenyl)-1H-1,2,3-triazol-4-yl)methyl)pyridin-4-amine] the value was 51 to 250 nM. With `CSc1cccc(-n2cc(CNc3ccnc(C(F)(F)F)c3)nn2)c1` [Compound 015, N-((1-(3-(Methylthio)phenyl)-1H-1,2,3-triazol-4-yl)methyl)-2-(trifluoromethyl)pyridin-4-amine], the concentration for half-maximal inhibition (IC50) was in the range of 51 to 250 nM.

`FC(F)(F)c1cc(NCc2cn(-c3ccc(CN4CCOCC4)cc3)nn2)ccn1` [Compound 019, N-((1-(4-(Morpholinomethyl)phenyl)-1H-1,2,3-triazol-4-yl)methyl)-2-(trifluoromethyl)pyridin-4-amine] yielded a concentration for half-maximal inhibition (IC50) of 251 to 1000 nM.

In the case of `Fc1ccc(-n2cc(CNc3ccnc(C(F)(F)F)c3)nn2)cc1F` [Compound 020, N-((1-(3,4-Difluorophenyl)-1H-1,2,3-triazol-4-yl)methyl)-2-(trifluoromethyl)pyridin-4-amine], the IC50 lay in the range of 51 to 250 nM. To `COc1cc(-n2cc(CNc3ccnc(C(F)(F)F)c3)nn2)ccc1Br` [Compound 023, N-((1-(4-Bromo-3-methoxyphenyl)-1H-1,2,3-triazol-4-yl)methyl)-2-(trifluoromethyl)pyridin-4-amine] belongs 251 to 1000 nM; to `Fc1cc(Br)ccc1-n1cc(CNc2ccnc(C(F)(F)F)c2)nn1` [Compound 024, N-((1-(4-Bromo-2-fluorophenyl)-1H-1,2,3-triazol-4-yl)methyl)-2-(trifluoromethyl)pyridin-4-amine], 51 to 250 nM. To `Fc1ccc(-n2cc(CNc3ccnc(C(F)(F)F)c3)nn2)cc1Cl` [Compound 027, N-((1-(3-Chloro-4-fluorophenyl)-1H-1,2,3-triazol-4-yl)methyl)-2-(trifluoromethyl)pyridin-4-amine] belongs 251 to 1000 nM; to `CN(c1ccccc1)c1ccc(-n2cc(CNc3ccnc(C(F)(F)F)c3)nn2)cc1` [Compound 029, N-((1-(4-(Methyl(phenyl)amino)phenyl)-1H-1,2,3-triazol-4-yl)methyl)-2-(trifluoromethyl)pyridin-4-amine], 51 to 250 nM; to `FC(F)(F)c1cc(NCc2cn(-c3ccc(Oc4ccccn4)c(Cl)c3)nn2)ccn1` [Compound 034, N-((1-(3-Chloro-4-(pyridin-2-yloxy)phenyl)-1H-1,2,3-triazol-4-yl)methyl)-2-(trifluoromethyl)pyridin-4-amine], at most 50 nM. In the case of `FC(F)(F)c1cc(SCc2cn(-c3ccc(Cl)cc3)nn2)ccn1` [Compound 055, 4-(((1-(4-chlorophenyl)-1H-1,2,3-triazol-4-yl)methyl)thio)-2-(trifluoromethyl)pyridine], the IC50 lay within 251 to 1000 nM. To `FC(F)(F)c1cc(SCc2cn(-c3ccc(Br)cc3)nn2)ccn1` [Compound 058, 4-(((1-(4-Bromophenyl)-1H-1,2,3-triazol-4-yl)methyl)thio)-2-(trifluoromethyl)pyridine] belongs 51 to 250 nM; to `FC(F)(F)c1cc(SCc2cn(-c3ccc(Cl)c(Cl)c3)nn2)ccn1` [Compound 059, 4-(((1-(3,4-Dichlorophenyl)-1H-1,2,3-triazol-4-yl)methyl)thio)-2-(trifluoromethyl)pyridine], 51 to 250 nM; to `FC(F)(F)c1nccc(SCc2cn(-c3ccc(Cl)cc3)nn2)n1` [Compound 060, 4-(((1-(4-chlorophenyl)-1H-1,2,3-triazol-4-yl)methyl)thio)-2-(trifluoromethyl)pyrimidine], 251 to 1000 nM.

In turn, `COc1ccc(-n2cc(CSc3ccnc(C(F)(F)F)c3)nn2)cc1` [Compound 062, 4-(((1-(4-methoxyphenyl)-1H-1,2,3-triazol-4-yl)methyl)thio)-2-(trifluoromethyl)pyridine] displayed an IC50 of 251 to 1000 nM. For `Fc1cc(-n2cc(CSc3ccnc(C(F)(F)F)c3)nn2)ccc1OC(F)(F)F` [Compound 064, 4-(((1-(3-fluoro-4-(trifluoromethoxy)phenyl)-1H-1,2,3-triazol-4-yl)methyl)thio)-2-(trifluoromethyl)pyridine] the value was 51 to 250 nM; for `FC(F)(F)c1cc(SCc2cnc(-c3ccc(Cl)cc3)s2)ccn1` [Compound 067, 2-(4-Chlorophenyl)-5-(((2-(trifluoromethyl)pyridin-4-yl)thio)methyl) thiazole], 251 to 1000 nM; for `COc1c(C)cc(-c2ncc(CNc3ccnc(C(F)(F)F)c3)s2)cc1C` [Compound 075, N-((2-(4-Methoxy-3,5-dimethylphenyl)thiazol-5-yl)methyl)-2-(trifluoromethyl)pyridin-4-amine], 251 to 1000 nM. For `N#Cc1ccc(-c2nc(CNc3ccnc(C(F)(F)F)c3)cs2)cc1` [Compound 085, 4-(4-(((2-(Trifluoromethyl)pyridin-4-yl)amino)methyl)thiazol-2-yl)benzonitrile] the value was 251 to 1000 nM; for `COc1ccc(-c2nc(CNc3ccnc(C(F)(F)F)c3)cs2)cc1` [Compound 086, N-((2-(4-Methoxyphenyl)thiazol-4-yl)methyl)-2-(trifluoromethyl)pyridin-4-amine], 251 to 1000 nM; for `FC(F)(F)c1cc(NCc2csc(-c3cccc(Oc4ccccc4)c3)n2)ccn1` [Compound 089, N-((2-(3-Phenoxyphenyl)thiazol-4-yl)methyl)-2-(trifluoromethyl)pyridin-4-amine], 51 to 250 nM. For `O=C(c1cccc(-c2nc(CNc3ccnc(C(F)(F)F)c3)cs2)c1)C1CC1` [Compound 090, Cyclopropyl(3-(4-(((2-(trifluoromethyl)pyridin-4-yl)amino)methyl)thiazol-2-yl)phenyl)methanone] the value was 251 to 1000 nM; for `FC(F)(F)c1cc(NCc2ncc(-c3ccc(Cl)nc3)cn2)ccn1` [Compound 099, N-((5-(6-Chloropyridin-3-yl)pyrimidin-2-yl)methyl)-2-(trifluoromethyl)pyridin-4-amine], 251 to 1000 nM. With `FC(F)(F)c1cc(SCc2ccc(-c3ccc(Oc4ccccc4)cc3)cn2)ccn1` [Compound 109, 4-(((5-(4-phenoxyphenyl)pyridin-2-yl)methyl)thio)-2-(trifluoromethyl)pyridine], the concentration for half-maximal inhibition (IC50) lay in the range of 251 to 1000 nM. For the compound `FC(F)(F)c1cc(SCc2ccc(-c3ccc(Cl)nc3)cc2)ccn1` [Compound 110, 4-((4-(6-Chloropyridin-3-yl)benzyl)thio)-2-(trifluoromethyl)pyridine], the IC50 was in the range of 251 to 1000 nM.

With `FC(F)(F)c1cc(SCc2ccc(-c3cnc(Cl)nc3)cn2)ccn1` [Compound 113, 2-Chloro-5-(6-(((2-(trifluoromethyl)pyridin-4-yl)thio)methyl)pyridin-3-yl)pyrimidine], the IC50 is 251 to 1000 nM.

`COc1ncc(-c2ccc(CSc3ccnc(C(F)(F)F)c3)nc2)cc1Cl` [Compound 115, 5-Chloro-6-methoxy-6′-(((2-(trifluoromethyl)pyridin-4-yl)thio)methyl)-3,3′-bipyridine] had a half-maximal inhibitory concentration (IC50) of 251 to 1000 nM. To `FC(F)(F)c1cc(SCc2nc3cc(Cl)ccc3[nH]2)ccn1` [Compound 123, 5-Chloro-2-(((2-(trifluoromethyl)pyridin-4-yl)thio)methyl)-1H-benzo[d]imidazole] belongs 251 to 1000 nM; to `FC(F)(F)c1nc(Cl)cc(SCc2nc3cc(Oc4ccccc4)ccc3[nH]2)n1` [Compound 124, 2-(((6-Chloro-2-(trifluoromethyl)pyrimidin-4-yl)thio)methyl)-5-phenoxy-1H-benzo[d]imidazole], 251 to 1000 nM.

The values above are taken from patent US11883387B2, “PqsR inverse agonists” (HELMHOLTZ-ZENTRUM FÜR INFEKTIONSFORSCHUNG GMBH, priority 2018, dated 2024).
